The record followed here is patent publication US20200232974A1, “LYMPHOCYTES EXPRESSING CD73 IN CANCEROUS PATIENT DICTATES THERAPY” (Centre Léon-Bérard, priority 2016, published 2020).

One series concerns the target T1, CD73 (Homo sapiens, UniProt P21589).
T1 construct: endogenous in cells
T1 sequence (P21589 27-549): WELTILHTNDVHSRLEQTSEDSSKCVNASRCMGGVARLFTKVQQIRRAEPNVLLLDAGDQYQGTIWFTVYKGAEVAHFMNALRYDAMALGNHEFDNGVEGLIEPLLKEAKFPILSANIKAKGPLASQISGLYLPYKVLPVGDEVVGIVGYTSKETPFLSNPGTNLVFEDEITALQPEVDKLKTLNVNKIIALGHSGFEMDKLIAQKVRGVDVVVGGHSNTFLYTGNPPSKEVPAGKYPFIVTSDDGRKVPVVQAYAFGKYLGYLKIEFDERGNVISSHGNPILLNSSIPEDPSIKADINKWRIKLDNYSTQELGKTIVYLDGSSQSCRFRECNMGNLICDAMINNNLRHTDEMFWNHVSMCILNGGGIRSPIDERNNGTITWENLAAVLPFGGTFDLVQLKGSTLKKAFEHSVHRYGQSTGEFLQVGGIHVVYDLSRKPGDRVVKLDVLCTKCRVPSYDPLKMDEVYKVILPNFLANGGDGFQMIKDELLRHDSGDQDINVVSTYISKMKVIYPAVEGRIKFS
In words: Hydrolysis of C13N15 AMP into Ado by CD73+ Tconv (HPLC). It is filed as cell-based. How it is done: To confirm this hypothesis, we quantified, by HPLC, the capacity of Treg to degrade ATP into Ado. To prevent interference with endogenous ATP or metabolites, these experiments were performed with exogenous C13N15 stable isotope ATP. After two hours, Treg purified from HD blood degraded 48.24±6.20% of ATP into AMP without generating neither Ado nor Inosine. […] Moreover, we confirmed that CD73^+ and CD73^neg Tconv were not able to degrade C13N15 ATP.
Using this technique, we confirmed the enzymatic functionality of CD73 on Tconv. Only CD73^+ Tconv were capable of hydrolyzing C13N15 AMP into Ado and this was reversed by addition of a specific CD73 inhibitor (AMPCP).

The next series relates to CD73+ Tconv. Briefly: Co-culture of Treg with CD73+ or CD73neg Tconv, with or without exogenous ATP: proliferation (CTV dilution). In kind it is cell-based, human. The conditions noted are these: Treg:Tconv ratio 1/1; round-bottomed wells; anti-CD3/anti-CD28 beads. The text has this: To analyze the biological impact of Ado generation by cooperation between CD39^+ Treg and CD73^+ Tconv, we co-cultured Treg labeled with proliferation marker CFSE in presence of CD73^+ or CD73^neg Tconv labeled with Cell Trace Violet (CTV) at a ratio 1/1 in presence or absence of exogenous ATP in round-bottomed wells with compact cell density in presence of anti-CD3/anti-CD28 beads. […] In contrast, CTV-labeled CD73^+ or CD73^neg proliferation that was not altered by the addition of Treg due to the strong activation. […] To mimic physiological conditions, Treg, CD73^+ and CD73^neg Tconv subsets were mixed together at physiological ratio (10%/20%/70%) observed in blood. ATP induced inhibition of the bulk proliferation which can be rescued by the combined addition of CD39 and CD73 inhibitors. The proliferation of each subset was analyzed by specific proliferation markers (CFSE and CTV alone or in combination).

Series [1] concerns CD73+ or CD73neg Tconv. In words: 4 days' proliferation of purified CD73+ or CD73neg Tconv with anti-CD3/anti-CD28 beads. In kind it is cell-based, human. How it is done: Addition of recombinant ADA (rhADA, 1 μg/ml), inducing degradation of Ado into Ino restored both T cell subsets proliferation confirming the immunosuppressive impact of Ado.
The next series addresses T2, CD39 (Homo sapiens, UniProt P49961).
T2 construct: Treg purified from HD blood degraded 48.24±6.20% of ATP into AMP; endogenous in cells
T2 sequence (P49961 1-510): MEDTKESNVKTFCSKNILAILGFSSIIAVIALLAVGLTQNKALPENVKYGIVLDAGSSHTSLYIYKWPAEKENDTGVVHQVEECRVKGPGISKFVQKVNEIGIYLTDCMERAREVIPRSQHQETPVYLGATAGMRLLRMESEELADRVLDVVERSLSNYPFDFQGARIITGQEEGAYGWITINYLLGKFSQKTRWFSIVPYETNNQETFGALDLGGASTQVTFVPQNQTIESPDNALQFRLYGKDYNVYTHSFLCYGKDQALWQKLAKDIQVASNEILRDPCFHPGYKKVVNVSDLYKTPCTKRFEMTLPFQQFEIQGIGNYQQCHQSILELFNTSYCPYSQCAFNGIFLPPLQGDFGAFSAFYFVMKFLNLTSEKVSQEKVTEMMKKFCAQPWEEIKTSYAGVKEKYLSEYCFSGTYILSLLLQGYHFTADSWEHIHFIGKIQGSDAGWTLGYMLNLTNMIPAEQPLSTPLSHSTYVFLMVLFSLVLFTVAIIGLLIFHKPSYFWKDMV
Briefly: Degradation of exogenous C13N15 ATP by purified Treg, quantified by HPLC. It is filed as cell-based. The conditions noted are these: Treg purified from HD blood, two hours. The method, then: FIG. 3: Breast and ovarian tumors contain highly functional CD39+ Treg and CD73+ Tconv with Th1/17 characteristics. (A) Representative expression of CD39 and CD73 analyzed on memory CD4+ Treg and Tconv from Breast (B) and ovarian (OT) by flow cytometry. Frequency of CD39+ cells (B) and Δ CD39 MFI on these cells (C) among paired Treg and Tconv were analyzed by flow cytometry among BT and OT and statistical analysis was performed by Two-way Anova analysis. (D) Purified tumor-associated Treg were assessed for ATP (37.5 μM) degradation by HPLC measurements and compared to HD-blood Treg. In some conditions 30 min pre-incubation with ARL67156 (250 μM) was used to assess the role of CD39 functional activity. (E,F) Δ CD39 MFI of CD39+ cells among Treg (E) or Tconv (F) from paired peripheral blood and BT or OT were analyzed. Statistical analysis was performed by using Two-way Anova analysis. (G) Frequency of CD73+ cells among Tconv from BT and OT was analyzed by flow cytometry. Statistical analysis was performed by using Kruskal-Wallis test.
To confirm this hypothesis, we quantified, by HPLC, the capacity of Treg to degrade ATP into Ado. To prevent interference with endogenous ATP or metabolites, these experiments were performed with exogenous C13N15 stable isotope ATP. After two hours, Treg purified from HD blood degraded 48.24±6.20% of ATP into AMP without generating neither Ado nor Inosine. […]

Series [2] concerns CD73+ or CD73neg Tconv. In words: Cytokine secretion of purified Tconv subsets after 2 days of anti-CD3/anti-CD28 bead activation. It is filed as cell-based, human. The conditions noted are these: 2 days of activation; addition of Ado. How it is done: Moreover, the impact of Ado and AMP on cytokine secretion capacity was analyzed on both purified Tconv subsets. To avoid a confounding effect of Ado and AMP on proliferation in this analysis we analyzed cytokine secretion after 2 days of activation with anti-CD3/anti-CD28 beads which was determined as the maximal length of activation without induction of any proliferation (CFSE dilution). First, we confirmed that CD73^+ Tconv produced more IL-2, TNF-α, IFN-γ, IL-17A, IL-22, GM-CSF and IL-3 but less IL-10, IL-13 and IL-21 than CD73^neg in this activation setting. As shown previously for the proliferation, the secretion of the cytokines produced by CD73^+ or CD73^neg Tconv was inhibited by the addition of Ado.

A further series concerns the target T3, MDR1 (Homo sapiens, UniProt P08183).
T3 construct: After staining of HD-PBMC with Rhd123 we analyzed, by flow cytometry, cells endowed with Rhd123 efflux function; endogenous in cells
In words: MDR1 functionality: Rhodamine 123 (Rhd123) efflux by flow cytometry. Particulars: HD-PBMC stained with Rhd123 (1 μg/ml); Elacridar 1 μM. It is filed as cell-based. Background: A flow cytometer gives signals particle by particle.

Series [3] concerns PBMC-purified memory CD4+ Tconv. In words: in vitro. Particulars: 48 h. How it is done: (§1) Memory CD4^+ Tconv purified from healthy donor PBMC were used. Purified 10^5 CD4^+ Tconv were cultured in 96-round bottomed wells in complete RPMI medium for 48 h in presence of a strong TCR stimulation (expand beads, ratio bead:cell 1:8)+IL-2 (50UI/ml) in absence (medium condition) or in presence of graded doses of Taxol (0.01; 0.1; 1 μM). Viability was analyzed by multiparametric flow cytometry on different cell subsets according to their expression of CD73 and MDR1 (CD73 MDR1, CD73^+MDR1^neg, CD73^negMDR1^+, CD73^negMDR1^neg). Survival was analyzed by multiparametric flow cytometry using Annexin-V and DAPI stainings (both from Becton Dickinson) according to CD73 and MDR1 expression. % of viable cells (Annexin V^neg DAPI^neg) was compared according to the cell subset analyzed.
(§2) Their survival was analyzed by multiparametric flow cytometry using with Annexin-V and DAPI stainings (both from Becton Dickinson) according to CD73 and MDR1 expression. The percentage of viable cells (Annexin V^neg DAPI^neg) was compared according to the cell subset analyzed.

A further series in a line: in vitro. Particulars: human. How it is done:
as §1, §2

In series [4] the test system is CD73 and TIGIT expression on CD4+ and CD8+ T cells. Briefly: Blood immune-monitoring of metastatic melanoma patients during anti-PD1 treatment (multiparametric flow cytometry). In kind it is in vivo, human. How it is done: 2nd line metastatic melanoma patients treated with anti PD-1 (Nivolumab, 3 mg/kg/i.v, every 2 weeks) were subjected to blood immune-monitoring, by multiparametric flow cytometry analysis, to assess, using specific coupled mAbs against CD73 (APC) and TIGIT (PE), the modulation of expression of both ICP on CD4+ and CD8+ T cells before (inclusion, WO) and during treatment (W2, W12).

T3 sequence (P08183 whole entry): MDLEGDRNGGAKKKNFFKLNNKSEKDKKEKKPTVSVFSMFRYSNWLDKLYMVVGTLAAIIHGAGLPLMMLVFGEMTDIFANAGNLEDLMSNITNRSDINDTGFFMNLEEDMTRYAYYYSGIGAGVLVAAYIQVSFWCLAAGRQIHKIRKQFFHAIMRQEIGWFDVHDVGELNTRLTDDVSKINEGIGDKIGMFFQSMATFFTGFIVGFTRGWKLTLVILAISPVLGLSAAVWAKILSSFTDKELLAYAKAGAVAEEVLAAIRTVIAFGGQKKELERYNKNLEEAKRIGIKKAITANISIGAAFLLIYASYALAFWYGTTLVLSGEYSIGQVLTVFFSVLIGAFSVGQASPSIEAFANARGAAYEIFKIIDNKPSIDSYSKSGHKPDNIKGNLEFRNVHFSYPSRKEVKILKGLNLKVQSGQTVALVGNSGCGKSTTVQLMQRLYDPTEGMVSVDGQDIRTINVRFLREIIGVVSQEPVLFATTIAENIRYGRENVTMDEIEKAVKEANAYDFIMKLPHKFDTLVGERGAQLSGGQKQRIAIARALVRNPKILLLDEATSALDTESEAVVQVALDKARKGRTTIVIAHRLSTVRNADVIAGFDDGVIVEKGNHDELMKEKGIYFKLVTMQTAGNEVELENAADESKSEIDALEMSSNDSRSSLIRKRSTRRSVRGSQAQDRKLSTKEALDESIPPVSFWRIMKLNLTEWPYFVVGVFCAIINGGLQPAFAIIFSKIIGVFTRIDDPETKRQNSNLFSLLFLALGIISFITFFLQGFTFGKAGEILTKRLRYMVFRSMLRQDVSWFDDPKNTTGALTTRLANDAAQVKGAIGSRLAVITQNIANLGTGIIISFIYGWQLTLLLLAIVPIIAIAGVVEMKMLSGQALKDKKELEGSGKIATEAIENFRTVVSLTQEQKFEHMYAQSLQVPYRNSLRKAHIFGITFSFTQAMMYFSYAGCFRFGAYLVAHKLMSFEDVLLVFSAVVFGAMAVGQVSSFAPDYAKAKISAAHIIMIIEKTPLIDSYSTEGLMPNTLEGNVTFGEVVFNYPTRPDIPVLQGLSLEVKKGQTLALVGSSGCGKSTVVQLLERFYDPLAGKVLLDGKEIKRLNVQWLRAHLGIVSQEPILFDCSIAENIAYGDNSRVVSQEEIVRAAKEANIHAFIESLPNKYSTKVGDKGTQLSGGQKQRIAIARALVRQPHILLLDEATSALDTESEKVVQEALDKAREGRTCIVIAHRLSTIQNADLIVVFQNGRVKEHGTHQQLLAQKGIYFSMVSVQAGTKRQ
Procedure for MDR1: (B, C) MDR1 functionality was assessed on CD73^+ and CD73^neg Tconv by their capacity to exclude Rhd123 (1 μg/ml) analyzed by flow cytometry. […] Frequency of Rhd123^neg cells was analyzed among CD73^+ (black) and CD73^neg (white) Tconv (D). Statistical analysis was performed by using Wilcoxon test.
Moreover, we took advantage of the physiological role of MDR1 in the efflux of specific fluorescent substrate like Rhodamine 123 (Rhd123). After staining of HD-PBMC with Rhd123 we analyzed, by flow cytometry, cells endowed with Rhd123 efflux function.

Turning to `Nc1ncnc2c1ncn2[C@@H]1O[C@H](COP(=O)(O)CP(=O)(O)O)[C@@H](O)[C@H]1O` [AMPCP], the “effect on hydrolysis of C13N15 AMP into Ado by CD73+ Tconv” value at CD73 is “reversed”. Further, the “effect on inhibition of CD73+ Tconv proliferation induced by Treg and ATP” value with CD73+ Tconv is on record as “reversed”. For the same molecule, the “effect on AMP-induced inhibition of CD73+ Tconv proliferation” value in the series on CD73+ or CD73neg Tconv [1] (added with AMP (150 μM final concentration)) was “reversion of inhibition”.

Turning to `Nc1ncnc2c1ncn2[C@@H]1O[C@H](COP(=O)(O)O)[C@@H](O)[C@H]1O` [AMP], the “effect on proliferation of CD73+ Tconv” value in the series with CD73+ or CD73neg Tconv [1] (metronomic addition, 150 μM final concentration, 4 days) is “inhibited”.

In the case of `CCN(CC)c1ncnc2c1ncn2[C@@H]1O[C@H](COP(=O)(O)OP(=O)(O)C(Br)(Br)P(=O)(O)O)[C@@H](O)[C@H]1O` [ARL67156], the “effect on degradation of ATP into AMP by Treg” value at CD39 is recorded as “completely inhibited”.

In the case of `Nc1ncnc2c1ncn2[C@@H]1O[C@H](CO)[C@@H](O)[C@H]1O` [Ado, adenosine], in the series on CD73+ or CD73neg Tconv [2], the “effect on IL-17A secretion by Tconv CD73+ (or CD73neg)” value is recorded as “not altered”, the “effect on IL-22 secretion” value is recorded as “slightly inhibited” and the “effect on secretion of the cytokines produced by CD73+ or CD73neg Tconv” value is “inhibited”. The “effect on proliferation of both subsets (CD73+ and CD73neg Tconv)” value in the series with CD73+ or CD73neg Tconv [1] (metronomic addition 75 μM/day, 300 μM final concentration, 4 days) was “inhibited”.

On to `COc1cc2c(cc1OC)CN(CCc1ccc(NC(=O)c3cccc4c(=O)c5cccc(OC)c5[nH]c34)cc1)CC2` [Elacridar], for which the “effect on Rhd123 efflux by Tconv” value at MDR1 is “completely abrogated”.

What is called viability is a read-out of living cells in per cent, often relative to untreated cells. A low value points to a greater loss of cells. Turning to `CC(=O)O[C@H]1C(=O)[C@@]2(C)[C@H]([C@H](OC(=O)c3ccccc3)[C@]3(O)C[C@H](OC(=O)[C@H](O)[C@@H](NC(=O)c4ccccc4)c4ccccc4)C(C)=C1C3(C)C)[C@]1(OC(C)=O)CO[C@@H]1C[C@@H]2O` [Taxol], the “sensitivity to Taxol-induced apoptosis” value in series [3] (CD73+MDR1neg subset, high Taxol doses) was “sensitive to apoptosis”; in series [3] (CD73negMDR1neg population) it was “highly sensitive”. In the series “in vitro”, this molecule showed a viability at 48 h, 1 µM of 80%.

With “Nivolumab: anti PD-1 antibody given to metastatic melanoma patients”, the “modulation of CD73 expression on CD4+ or CD8+ T cells” value in series [4] (11 patients, 3 mg/kg i.v. every 2 weeks, before (W0) and during treatment (W2, W12)) was “No significant modulation”. Besides, in [4] (between W0 and W2, representative dot plot), the “modulation of TIGIT expression” value was “increased”.

B1: rhADA: recombinant Adenosine Deaminase, inducing degradation of Ado into Ino (protein, UniProt P00813 2-363, looked up)
Adenosine deaminase: AQTPAFDKPKVELHVHLDGSIKPETILYYGRRRGIALPANTAEGLLNVIGMDKPLTLPDFLAKFDYYMPAIAGCREAIKRIAYEFVEMKAKEGVVYVEVRYSPHLLANSKVEPIPWNQAEGDLTPDEVVALVGQGLQEGERDFGVKARSILCCMRHQPNWSPKVVELCKKYQQQTVVAIDLAGDETIPGSSLLPGHVQAYQEAVKSGIHRTVHAGEVGSAEVVKEAVDILKTERLGHGYHTLEDQALYNRLRQENMHFEICPWSSYLTGAWKPDTEHAVIRLKNDQANYSLNTDDPLIFKSTLDTDYQMTKRDMGFTEEEFKRLNINAAKSSFLPEDEKRELLDLLYKAYGMPPSASAGQNL
Regarding B1, in the series on CD73+ or CD73neg Tconv [1] (rhADA 1 μg/ml added with exogenous Ado), the “effect on Ado-inhibited proliferation of both T cell subsets” value is “restored”.
